Data: ChEMBL document CHEMBL1268837, “Novel CGRP receptor antagonists from central amide replacements causing a reversal of preferred chirality” (Bioorg Med Chem Lett, 2010)

Columns and labels:
[1] = biological target: T1, Calcitonin gene-related peptide type 1 receptor (Homo sapiens, UniProt O60894+Q16602); assay: Displacement of [125I]hCGRP from human cloned CGRP receptor expressed in HEK293 cells; assay type: cell-based
[2] = biological target: T1, Calcitonin gene-related peptide type 1 receptor; assay: Binding affinity to human recombinant CGRP receptor

T1 sequence (Q16602 whole entry, one chain of several): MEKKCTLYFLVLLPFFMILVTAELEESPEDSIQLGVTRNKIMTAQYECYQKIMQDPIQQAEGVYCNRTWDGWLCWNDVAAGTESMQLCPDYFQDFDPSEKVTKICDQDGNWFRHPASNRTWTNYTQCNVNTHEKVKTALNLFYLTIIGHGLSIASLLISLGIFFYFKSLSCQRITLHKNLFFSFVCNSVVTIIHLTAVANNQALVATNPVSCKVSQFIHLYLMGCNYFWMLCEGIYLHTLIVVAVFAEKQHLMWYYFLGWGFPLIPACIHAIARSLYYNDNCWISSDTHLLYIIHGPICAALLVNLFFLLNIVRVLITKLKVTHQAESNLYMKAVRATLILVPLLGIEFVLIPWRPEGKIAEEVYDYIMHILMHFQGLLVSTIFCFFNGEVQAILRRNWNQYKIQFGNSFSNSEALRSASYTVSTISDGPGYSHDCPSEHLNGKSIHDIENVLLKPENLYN

| Ki [1] [pM] | Ki [2] [pM] | SMILES |
| --- | --- | --- |
| 110 |  | CC(C)(C)C(=O)N(Cc1ccc2nc3c(cc2c1)C[C@@]1(C3)C(=O)Nc2ncccc21)[C@@H]1CCc2ccccc21 |
| 1300 |  | CC(C)(C)C(=O)N(Cc1ccccc1)Cc1cnc2cc3c(cc2c1)C[C@@]1(C3)C(=O)Nc2ncccc21 |
| 120 |  | C[C@H](c1cc(F)cc(F)c1)N(Cc1cnc2cc3c(cc2c1)C[C@@]1(C3)C(=O)Nc2ncccc21)C(=O)C(C)(C)C |
|  | 35000 | CN1C(=O)NC(=O)C12Cc1cc3cc(CN(Cc4ccccc4)C(=O)C(C)(C)C)cnc3cc1C2 (stereo unspecified) |
| 100 |  | C[C@H](c1ccccc1)N(Cc1cnc2cc3c(cc2c1)C[C@@]1(C3)C(=O)Nc2ncccc21)C(=O)C(C)(C)C |
| 300 |  | CC1(C)CC[C@@H](c2cc(F)cc(F)c2)N(Cc2cnc3cc4c(cc3c2)C[C@@]2(C4)C(=O)Nc3ncccc32)C1=O |
| 690 |  | CC(C)(C)C(=O)N(Cc1cc(F)cc(F)c1)Cc1cnc2cc3c(cc2c1)C[C@@]1(C3)C(=O)Nc2ncccc21 |
| 37 |  | CC(C)(C)C(=O)N(Cc1cnc2cc3c(cc2c1)C[C@@]1(C3)C(=O)Nc2ncccc21)C[C@@H]1CCc2ccccc21 |
|  | 12000 | CN1C(=O)NC(=O)[C@]12Cc1cc3cc(CN(Cc4ccccc4)C(=O)C(C)(C)C)cnc3cc1C2 |
|  | 2200 | CN1C(=O)NC(=O)C12Cc1cc3ccc(CN(Cc4ccccc4)C(=O)C(C)(C)C)nc3cc1C2 (stereo unspecified) |
| 150 |  | CC(C)(C)C(=O)N(Cc1cnc2nc3c(cc2c1)C[C@@]1(C3)C(=O)Nc2ncccc21)[C@@H]1CCc2ccccc21 |
